Test results from patent publication US20080249136A1, “Antimicrobial Composition and Method” (priority 2005, published 2008).

How the values were obtained:
[1] = test system: Pseudomonas aeruginosa ATCC #10145; test: Efficacy (log kill) against Pseudomonas aeruginosa, 96-well assay block; assay type: cell-based
Procedure: (§1) The cationic polymers are pH adjusted in the range of 6-7.5. It should be noted that the Ecopol polymers require an acidic environment for complete dissolution. Once the polymer is dissolved, NaOH can be used to bring the pH to the desired range.
(§2) The efficacy of the antimicrobial combinations against Staphylococcus aureus ATCC #6538 and Pseudomonas aeruginosa ATCC #10145 is measured. Testing is done in 96-well 1.5 ml polypropylene assay blocks using 96-well polypropylene sealing mats for covering the samples during incubation. The individual wells in the 96-well assay block are identified as follows: 12 columns numbered 1-12 across the top row of wells on the block, and 8 rows lettered A-H on the first column of the block. Columns 1 and 2 are reserved to test the activity of the biocide in buffer (pH 7.2) in the absence of the cationic polymer. Columns 11 and 12 are always reserved as control, to verify growth of the microorganism in the absence of the biocide. The preparation of the assay blocks involves the following steps in chronological order:
(§3) 1. Preparation of the biocide solution in an appropriate solvent at a concentration equal to 10 times the final concentration desired in row A; 2. Addition of predetermined amount of the stock biocide solution to each well in row A; 3. Addition of a predetermined amount of the solvent to rows B-H and wells 11A and 12A; 4. Serial dilution of the biocide, by transferring a predetermined amount of the solution from row A to row B, mixing, and repeating the transfer down all the rows. After the mixing step in row H, the transferring amount is taken out and disposed of; 5. Inoculation of the buffer and polymer solutions with the test organism. For bacteria, a 24-hour culture is used. Following the incubation period, the organism concentration in the medium is determined by reading the OD at 620 nm. This culture is used to inoculate the buffer and the polymer solution to a bacterial concentration of 1E6 cfu/ml. Fungal challenges are performed with fungal spores isolated from inoculated SDA slants. The spores are collected by swiping the slant with a sterile cotton swab and re-suspended in tryptic soy broth. Tween 80 is added to aid in spore separation and the suspension was homogenized. The spore concentration is obtained by use of a hemacytometer. This suspension is used to inoculate the buffer and the polymeric solutions to a spore concentration of 3-5E6 cfu/ml; 6. Addition of the inoculated buffer or polymer solution to each well. 7. Thorough mixing of the blends in each well; 8. Sampling for the time 0, 24 h, 48 h and 7 days reading is accomplished using a 96-well 300 μl polystyrene microplate. Tryptic Soy broth (TSB) is used for the bacterial studies and Malt (YM) broth buffered at pH 7.4 for fungal studies; 9. The microplates are incubated at 35° C. for bacteria and 30° C. for fungus, until the control samples show adequate growth; and 10. Data is recorded as the log reduction in microorganism concentration relative to the inoculum.

[2] = test system: Staphylococcus aureus ATCC #6538; test: Efficacy (log kill) against Staphylococcus aureus, 96-well assay block; assay type: cell-based
Procedure: as §1, §2, §3

## ClC=CC[N+]12CN3CN(CN(C3)C1)C2.[Cl-] [CTAC, 1-(3-chloroallyl)-3,5,7-triaza-1-azoniaadamantane chloride]
[1]; Active Conc. 46.8 ppm
  Log kill 24 h: 0 log
  Log kill 48 h: 0 log
  Log kill 7 days: 0 log
  Log kill t0: 0 log
[1]; Active Conc. 158 ppm
  Log kill 24 h: 0 log
  Log kill 48 h: 0.5 log
  Log kill 7 days: 5 log
  Log kill t0: 0 log
[1]; Active Conc. 355.6 ppm
  Log kill 24 h: 1 log
  Log kill 48 h: 4 log
  Log kill 7 days: 6 log
  Log kill t0: 0 log
[1]; Active Conc. 800 ppm
  Log kill 24 h: 2.5 log
  Log kill 48 h: 5 log
  Log kill 7 days: 6 log
  Log kill t0: 0 log
[2]; Active Conc. 52.7 ppm
  Log kill 24 h: 0 log
  Log kill 48 h: 0 log
  Log kill 7 days: 1 log
  Log kill t0: 0 log
[2]; Active Conc. 79 ppm
  Log kill 24 h: 0 log
  Log kill 48 h: 0 log
  Log kill 7 days: 1 log
  Log kill t0: 0 log
[2]; Active Conc. 177.8 ppm
  Log kill 24 h: 0 log
  Log kill 48 h: 0 log
  Log kill 7 days: 4 log
  Log kill t0: 0 log
[2]; Active Conc. 400 ppm
  Log kill 24 h: 0 log
  Log kill 48 h: 0 log
  Log kill 7 days: 6 log
  Log kill t0: 0 log

## Cc1ccc(S(=O)(=O)C(I)I)cc1 [DIMTS, diiodomethyl-para-tolylsulfone]
[1]; Active Conc. 414 ppm
  Log kill 24 h: 0 log
  Log kill 48 h: 1 log
  Log kill 7 days: 2 log
  Log kill t0: 0 log
[1]; Active Conc. 2000 ppm
  Log kill 24 h: 1 log
  Log kill 48 h: 1 log
  Log kill 7 days: 2 log
  Log kill t0: 0 log
[2]; Active Conc. 189.7 ppm
  Log kill 24 h: 0 log
  Log kill 48 h: 0 log
  Log kill 7 days: 0 log
  Log kill t0: 0 log
[2]; Active Conc. 265.6 ppm
  Log kill 24 h: 0 log
  Log kill 48 h: 0 log
  Log kill 7 days: 0 log
  Log kill t0: 0 log
[2]; Active Conc. 1428.6 ppm
  Log kill 24 h: 0 log
  Log kill 48 h: 0 log
  Log kill 7 days: 2 log
  Log kill t0: 0.5 log
[2]; Active Conc. 2000 ppm
  Log kill 24 h: 1 log
  Log kill 48 h: 1 log
  Log kill 7 days: 6 log
  Log kill t0: 1 log

## Oc1ccccc1-c1ccccc1 [OPP, ortho-phenylphenol]
[1]; Active Conc. 130.2 ppm
  Log kill 24 h: 0 log
  Log kill 48 h: 1 log
  Log kill 7 days: 1.5 log
  Log kill t0: 0 log
[1]; Active Conc. 182.2 ppm
  Log kill 24 h: 1.5 log
  Log kill 48 h: 2.5 log
  Log kill 7 days: 2.5 log
  Log kill t0: 1.5 log
[1]; Active Conc. 222.2 ppm
  Log kill 24 h: 4.5 log
  Log kill 48 h: 3.5 log
  Log kill 7 days: 4 log
  Log kill t0: 4 log
[2]; Active Conc. 124 ppm
  Log kill 24 h: 2 log
  Log kill 48 h: 2 log
  Log kill 7 days: 6 log
  Log kill t0: 0 log
[2]; Active Conc. 182.2 ppm
  Log kill 24 h: 6 log
  Log kill 48 h: 6 log
  Log kill 7 days: 6 log
  Log kill t0: 1 log
[2]; Active Conc. 278.9 ppm
  Log kill 24 h: 3.5 log
  Log kill 48 h: 3 log
  Log kill 7 days: 4 log
  Log kill t0: 0.5 log
[2]; Active Conc. 418.4 ppm
  Log kill 24 h: 6 log
  Log kill 48 h: 6 log
  Log kill 7 days: 4 log
  Log kill t0: 6 log

## Oc1cc(Cl)ccc1Oc1ccc(Cl)cc1Cl [Triclosan, 2,4,4′-trichloro-2-hydroxyphenyl ether]
[1]; 800 ppm of Triclosan
  contact time to achieve 3 log reduction in P. aeruginosa: greater than 48 hours
[1]; Triclosan Conc. 105.3 ppm
  Log kill 24 h: 1 log
  Log kill 48 h: 1 log
  Log kill 7 days: 2 log
  Log kill t0: 0 log
[1]; Triclosan Conc. 355.6 ppm
  Log kill 24 h: 1 log
  Log kill 48 h: 2 log
  Log kill 7 days: 2 log
  Log kill t0: 1 log
[1]; Triclosan Conc. 800 ppm
  Log kill 24 h: 1 log
  Log kill 48 h: 2.5 log
  Log kill 7 days: 4 log
  Log kill t0: 1 log

## zinc pyrithione [ZPT]
[1]; 800 ppm active, before 48 h
  control of P. aeruginosa before 48 h: no control
[1]; Active Conc. 46.8 ppm
  Log kill 24 h: 0 log
  Log kill 48 h: 0 log
  Log kill 7 days: 2 log
  Log kill t0: 0 log
[1]; Active Conc. 533.3 ppm
  Log kill 24 h: 0 log
  Log kill 48 h: 1.5 log
  Log kill 7 days: 3 log
  Log kill t0: 0 log
[1]; Active Conc. 800 ppm
  Log kill 24 h: 0 log
  Log kill 48 h: 2 log
  Log kill t0: 0 log
[2]; Active Conc. 5.9 ppm
  Log kill 24 h: 0 log
  Log kill 48 h: 1 log
  Log kill 7 days: 1 log
  Log kill t0: 0 log
[2]; Active Conc. 29.6 ppm
  Log kill 24 h: 0 log
  Log kill 48 h: 1 log
  Log kill 7 days: 1 log
  Log kill t0: 0 log
[2]; Active Conc. 100 ppm
  Log kill 24 h: 0.5 log
  Log kill 48 h: 1.5 log
  Log kill 7 days: 2 log
  Log kill t0: 1 log
